Drawing on patent publication US12679801B2, “Amino lipid and preparation method and application thereof” (Shenzhen MagicRNA Biotechnology Co., Ltd., priority 2022, dated 2026), this text covers Luciferase luminescence intensity for 49 compounds.

Molecules are shown by their SMILES.

For the first assay, the system named is BMDC primary cells. As to the kind of experiment: Luc mRNA LNP transfection on BMDC primary cells (Embodiment 21, Table 9). The settings on record: 16 h, ONE-Glo Luciferase. Type of assay: cell-based, C57BL/6 mice. Here is the method: Preparation method: the same as that in Embodiment 17.
Animal preparation: 6-week-old female C57BL/6 mice with the body weight about 20 g were selected. A feeding environment was an SPF stage feeding room. Animal tests were strictly performed according to the guide of the national health institute and the animal ethics requirements.
(§1) Cell acquisition: C57BL/6 mice were killed through cervical dislocation, and were soaked for 5 min in 75% ethyl alcohol. Dissection was performed to obtain thigh and calf tibiae of the mice. Attached muscles were removed to expose sclerotin. Then, bone marrow in tibiae was blown out by using a 1 mL injector sucked with PBS. After the bone marrow was blown away, impurities were filtered away by a 50 μm filter screen. A red blood cell lysis buffer (3-4 mL) was added into an obtained filtrate. Then, after placement for 5 min, 800 g centrifugation was performed for 5 min to remove a supernatant. The obtained cells were placed into a 1640 culture medium (containing 10% fetal calf serum, 20 ng/mL GMCSF and 10 ng/mL IL4) to be resuspended, and were inoculated into a 6-well plate at an inoculation density of 100000 cells/ml culture medium. The materials were placed into a 37° C. cell incubator containing 5% CO2. Half liquid change was performed once every 2 days. Suspended cells and loose wall attached cells were collected on the seventh day, and were inoculated to a 96-well all-white ELISA plate at the inoculation density of 20000 cells per well, and the volume of a culture medium was 100 μL.
Cell transfection: lipid nanoparticles coated with luciferase mRNA were added into a 96-well white ELISA plate laid with primary cells. The adding volume of the mRNA lipid nanoparticles in each well was controlled to be 10 μL. Then, the materials were put into a 37° C. incubator containing 5% CO2 for 16 h.
Transfection efficiency detection: 20 μL of a substrate ONE-Glo™ Luciferase was added into each well of a 96-well all-white ELISA plate, and after 1 min, detection was performed by a multifunctional or multimode microplate reader.
The compound `CCCCCCCCCC(CCCCCCCCC)C(=O)OCC(CCCCCC)OC(=O)CCCCN(C)C` (stereo not shown) [E3C116A11] yielded a Luciferase luminescence intensity of 4.4E+04.
In the case of `CCCCCCCCCCC(CCCC)C(=O)OCC(CCCCCCCC)OC(=O)CCCN(C)C` (stereo not shown) [E5C104A9], the Luciferase luminescence intensity was found to be 5.2E+04.
Compound `CCCCCCCCCCC(CCCC)C(=O)OCC(CCCCCCCC)OC(=O)CCCCN(C)C` (stereo not shown) [E5C104A11] had a Luciferase luminescence intensity of 4.0E+04.
`CCCCCCCCCC(CCCCC)C(=O)OCC(CCCCCCCC)OC(=O)CCCN(C)C` (stereo not shown) [E5C109A9] had a Luciferase luminescence intensity of 3.9E+03.
Regarding `CCCCCCCCC(COC(=O)C(CCCCCCC)CCCCCCC)OC(=O)CCCN(C)C` (stereo not shown) [E5C114A9], the Luciferase luminescence intensity worked out at 8.6E+03.
Compound `CCCCCCCCC(COC(=O)C(CCCCCCC)CCCCCCC)OC(=O)CCCCN(C)C` (stereo not shown) [E5C114A11] had a Luciferase luminescence intensity of 4.6E+04.
In the case of `CCCCCCCCC(COC(=O)C(CCCCCCCC)CCCCCCCC)OC(=O)CCCN(C)C` (stereo not shown) [E5C115A9], the Luciferase luminescence intensity is 2.7E+04.
`CCCCCCCCC(COC(=O)C(CCCCCCCC)CCCCCCCC)OC(=O)CCCCN(C)C` (stereo not shown) [E5C115A11] had a Luciferase luminescence intensity of 1.1E+05.
Turning to `CCCCCCCCCC(CCCCCCCCC)C(=O)OCC(CCCCCCCC)OC(=O)CCCCN(C)C` (stereo not shown) [E5C116A11], the Luciferase luminescence intensity worked out at 6.2E+04.
`CCCCCCCCCCC(CCCC)CC(=O)OCC(CCCCCCCC)OC(=O)CCCN(C)C` (stereo not shown) [E5C119A9] showed a Luciferase luminescence intensity of 4.1E+04.
On the same count and under the same terms, to `CCCCCCCCC(COC(=O)CC(CCCCCCC)CCCCCCC)OC(=O)CCCN(C)C` (stereo not shown) [E5C128A9] belongs 3.9E+04; to `CCCCCCCCC(COC(=O)CC(CCCCCCC)CCCCCCC)OC(=O)CCCCN(C)C` (stereo not shown) [E5C128A11], 4.3E+04.

For the next assay, the system named is BMDC primary cells. Kind of assay: Luc mRNA LNP transfection on BMDC primary cells (Embodiment 13, Table 3). Type of assay: cell-based, C57BL/6 mice. The settings on record: 16 h, ONE-Glo Luciferase. Here is the method: Preparation method: the same as that described in Embodiment 7.
Animal preparation: 6-week-old female C57BL/6 mice with the body weight about 20 g were selected. The feeding environment was an SPF stage feeding room. Animal tests were strictly performed according to the guide of the national health institute and the animal ethics requirements.
as §1, with “remove the” for “remove a”, “10 ng/ml” for “10 ng/mL”, “were” for “were inoculated to a 96-well all-white ELISA plate at the inoculation density of 20000 cells”
Cell transfection: lipid nanoparticles coated with luciferase mRNA were added into a 96-well all-white ELISA plate laid with primary cells. The adding volume of the mRNA lipid nanoparticles in each well was controlled to be 10 μL. Then, the materials were put into a 37° C. incubator containing 5% CO2 for 16 h.
Transfection efficiency detection: 20 μL of a substrate ONE-Glo™ Luciferase was added into each well of a 96-well all-white ELISA plate. After 1 min, detection was performed by a multifunctional or multimode microplate reader.
The compound `CCCCCCCCCCCCCCC(COC(=O)C(CC)CCCCCCCCC)OC(=O)CCCCN(C)C` (stereo not shown) [E11C60A11] had a Luciferase luminescence intensity of 3.3E+ 04.
Turning to `CCCCCCCCCCCCCCC(COC(=O)C(CCC)CCCCCCCC)OC(=O)CCCCN(C)C` (stereo not shown) [E11C62A11], the Luciferase luminescence intensity amounted to 4.1E+ 04.
Compound `CCCCCCCCCCCCCCCC(COC(=O)CCCCCCCCCC)OC(=O)CCCCN(C)C` (stereo not shown) [E12C6A11] displayed a Luciferase luminescence intensity of 1.2E+ 04.
The same measure, in the same setting: under `CCCCCCCCCCCCCCCC(COC(=O)C(CCCCCC)CCCCCC)OC(=O)C1CCN(C)CC1` (stereo not shown) [E12C64A23] stands 1.8E+ 04.
In the case of `CCCCCCCCCCCCCCCC(COC(=O)C(C)CCCCCCCCCCCCCC)OC(=O)CCCCN(C)C` (stereo not shown) [E12C74A11], the Luciferase luminescence intensity was determined as 1.1E+ 04.
Still for that read-out and setting: to `C=CCCCCC(COC(=O)C(CCCCCCC)CCCCCCCCC)OC(=O)C(C)CCN(C)C` (stereo not shown) [E15C79A10] belongs 8.9E+ 04; to `C=CCCCCC(COC(=O)C(CCCCCCC)CCCCCCCCC)OC(=O)CCCCN(C)C` (stereo not shown) [E15C79A11], 3.0E+ 04; to `C=CCCCCC(COC(=O)C(CCCCCCC)CCCCCCCCC)OC(=O)CCCCCN(C)C` (stereo not shown) [E15C79A12], 4.4E+ 04.
As to `CCCCCCCCCCCCCC(=O)OCC(CCCCCC(CC)CC)OC(=O)C(C)CCN(C)C` (stereo not shown) [E20C9A10], the Luciferase luminescence intensity worked out at 2.7E+ 04.
As to `CCCCCCCCCCCCCC(=O)OCC(CCCCCC(CC)CC)OC(=O)CCCCN(C)C` (stereo not shown) [E20C9A11], the Luciferase luminescence intensity is 4.0E+ 04.
Consider `CCCCCCCCCCCCCCC(=O)OCC(CCCCCC(CC)CC)OC(=O)CCCN(C)C` (stereo not shown) [E20C10A9], for which the Luciferase luminescence intensity was found to be 4.8E+ 04.
On the same count and under the same terms, to `CCCCCCCCCCCCCCC(=O)OCC(CCCCCC(CC)CC)OC(=O)C(C)CCN(C)C` (stereo not shown) [E20C10A10] belongs 1.2E+ 04; to `CCCCCCCCCCCCCCC(=O)OCC(CCCCCC(CC)CC)OC(=O)CCCCN(C)C` (stereo not shown) [E20C10A11], 1.9E+ 04.
Regarding `CCCCCCCCCCCCCCC(=O)OCC(CCCCCC(CC)CC)OC(=O)CCCCCN(C)C` (stereo not shown) [E20C10A12], the Luciferase luminescence intensity came out at 3.6E+ 04.
On to `CCCCCCCCCCCCCCCC(=O)OCC(CCCCCC(CC)CC)OC(=O)CCCN(C)C` (stereo not shown) [E20C11A9, 2-((4-(Dimethylamino)Butyryl)Oxy)-8-Ethyldecyl Palmitate], for which the Luciferase luminescence intensity came out at 9.9E+ 04.
Compound `CCCCCCCCCCCCCCCC(=O)OCC(CCCCCC(CC)CC)OC(=O)C(C)CCN(C)C` (stereo not shown) [E20C11A10] gave a Luciferase luminescence intensity of 4.5E+ 04.
Turning to `CCCCCCCCCCCCCCCC(=O)OCC(CCCCCC(CC)CC)OC(=O)C1CCN(C)CC1` (stereo not shown) [E20C11A23], the Luciferase luminescence intensity is reported as 1.6E+ 04.
On the same count and under the same terms, under `CCCCCCCCCCCCCCCCC(=O)OCC(CCCCCC(CC)CC)OC(=O)CCCN(C)C` (stereo not shown) [E20C12A9] stands 4.9E+ 04; under `CCCCCCCCCCCCCCCCC(=O)OCC(CCCCCC(CC)CC)OC(=O)C(C)CCN(C)C` (stereo not shown) [E20C12A10], 9.6E+ 04.
On the same count and under the same terms, under `CCCCCCCCCCCCCCCCC(=O)OCC(CCCCCC(CC)CC)OC(=O)C1CCN(C)CC1` (stereo not shown) [E20C12A23] stands 1.7E+ 04; under `CCCCCCC(CCCCCC)C(=O)OCC(CCCCCC(CC)CC)OC(=O)CCCN(C)C` (stereo not shown) [E20C64A9], 3.0E+ 04.
`CCCCCCCCCCC(C)(C)C(=O)OCC(CCCCCC(CC)CC)OC(=O)CCCN(C)C` (stereo not shown) [E20C66A9]: the Luciferase luminescence intensity turned out to be 5.9E+ 04.
The compound `CCC(CC)CCCCCC(COC(=O)CCCCCCCCCCCC(C)C)OC(=O)CCCN(C)C` (stereo not shown) [E20C67A9] had a Luciferase luminescence intensity of 9.5E+ 03.
Regarding `CCCCCCCCC(CCCCCC)C(=O)OCC(CCCCCC(CC)CC)OC(=O)CCCN(C)C` (stereo not shown) [E20C71A9], the Luciferase luminescence intensity was determined as 6.6E+ 04.
For `CCCCCCCCCCCCCC(C)C(=O)OCC(CCCCCC(CC)CC)OC(=O)CCCN(C)C` (stereo not shown) [E20C72A9], the Luciferase luminescence intensity stood at 4.7E+ 03.
For `CCCCCCCCCCCCCCCC(=O)OCC(OC(=O)CCCN(C)C)C(CCCC)CCCCC` (stereo not shown) [E21C11A9], the Luciferase luminescence intensity was determined as 8.7E+ 03.
Consider `CCCCCCCCCCCCCCCC(=O)OCC(OC(=O)C(C)CCN(C)C)C(CCCC)CCCCC` (stereo not shown) [E21C11A10], for which the Luciferase luminescence intensity is 1.7E+ 04.
For `CCCCCCCCCCCCCCCC(=O)OCC(OC(=O)CCCCN(C)C)C(CCCC)CCCCC` (stereo not shown) [E21C11A11], the Luciferase luminescence intensity is 4.7E+ 04.
Still for that read-out and setting: to `CCCCCCCCCCCCCCCCC(=O)OCC(OC(=O)CCCN(C)C)C(CCCC)CCCCC` (stereo not shown) [E21C12A9] belongs 5.4E+ 04; to `CCCCCCCCCCCCCCCCC(=O)OCC(OC(=O)C(C)CCN(C)C)C(CCCC)CCCCC` (stereo not shown) [E21C12A10], 8.9E+ 04; to `CCCCCCCCCCCCCCCCC(=O)OCC(OC(=O)CCCCN(C)C)C(CCCC)CCCCC` (stereo not shown) [E21C12A11], 9.5E+ 04.
`CCCCCCCCCCCCCCCCCC(=O)OCC(OC(=O)CCCN(C)C)C(CCCC)CCCCC` (stereo not shown) [E21C13A9]: the Luciferase luminescence intensity worked out at 6.7E+ 04.
Regarding `CCCCCCCCCCCCCCCCCC(=O)OCC(OC(=O)CCCCN(C)C)C(CCCC)CCCCC` (stereo not shown) [E21C13A11], the Luciferase luminescence intensity turned out to be 6.4E+ 04.
Take `CCCCCCCCCCCCCCCCCCC(=O)OCC(OC(=O)CCCN(C)C)C(CCCC)CCCCC` (stereo not shown) [E21C14A9]: the Luciferase luminescence intensity came to 4.5E+ 04.
With `CCCCCC(CCCC)C(COC(=O)CCCCCCCCCCCC(C)C)OC(=O)CCCN(C)C` (stereo not shown) [E21C67A9], the Luciferase luminescence intensity was found to be 3.2E+ 04.
For `CCCCCCCCC(CCCCCC)C(=O)OCC(OC(=O)C1CCN(C)CC1)C(CCCC)CCCCC` (stereo not shown) [E21C71A23], the Luciferase luminescence intensity stood at 1.9E+ 04.
As to `CCCCCCCCCCCCCC(=O)OC(CC(F)(F)C(F)(F)C(F)(F)C(F)(F)C(F)(F)C(F)(F)F)OC(=O)CCCN(C)C` (stereo not shown) [E24C9A9, 1-((4-(Dimethylamino)Butyryl)Oxy)-3,3,4,4,5,5,6,6,7,7,8,8,8-Tridecafluorooctyl Tetradecanoate], the Luciferase luminescence intensity came to 1.1E+ 04.
